The results in this text go back to patent publication US20240207243A1, “METHOD OF TREATING LAMINOPATHIES” (Eiger Biopharmaceuticals, Inc., priority 2019, published 2024).

Structures are written as SMILES. Entries after “also recorded” stand apart in the source; their conditions may differ.

The conditions of data set [1]: in vivo. The procedure: (§1) This study was conducted as an open-label, drug-drug interaction (DDI) study, a food-effect study with LNF alone, and a food-effect study with LNF+ritonavir (RTV). This study assessed the effects of multiple-dose LNF (75 mg twice daily×5 days) on the PK of single dose omeprazole (1×40-mg capsule) relative to omeprazole alone in.
Other sensitive CYP2C19 substrates should be monitored during concomitant administration with LNF. […] Extent of exposure was 6,200 ng·h/mL and the T1/2 was 5.57 hours. Trough LNF concentrations increased from Day 7 to Day 9 (AM). By Day 10 trough levels stabilized, indicating steady-state LNF levels were achieved over 5 days of consecutive dosing. […] There were no deaths, SAEs, or other significant AEs. All AEs were Grade 1 or 2.

Data set [2] deals with CYP3A. Kind of data set: In vitro and in vivo CYP inhibition studies (CYP3A). An excerpt:
The following medicines are contraindicated when used with lonafarnib and unless otherwise noted, the contraindication is based on the potential for lonafarnib to inhibit metabolism of the co-administered medicinal product, resulting in increased exposure to the co-administered medicinal product and risk of clinically significant adverse effects.
(§2) Concomitant administration of lonafarnib with sensitive CYP3A or CYP2C19 substrates and strong or moderate CYP3A4 inhibitors or inducers, including herbal supplements can increase exposure of the co-administered medicinal product or lonafarnib resulting in risk of clinically significant adverse events or decrease exposure of lonafarnib, which may impact efficacy. Medicinal products that are sensitive CYP3A or CYP2C19 substrates, strong or moderate CYP3A inhibitors, or strong or moderate CYP3A inducers should be discontinued. If treatment cannot safety be discontinued or an alternative drug is not available, lonafarnib should be stopped during the course of treatment unless the benefit outweighs the possible risks.

The target in data set [3] is T1, CYP2C19 (Homo sapiens, UniProt P33261). The experiment in a line: Drug-drug interaction study: multiple-dose LNF on PK of single-dose omeprazole. It counts as in vivo. To be noted: for CYP2C19 inhibition in vivo (classification): lonafarnib 75 mg twice daily, omeprazole probe. More on the design: single-dose omeprazole, a sensitive CYP2C19 substrate; endogenous in cells; host or cells: study subjects in vivo. The method, then:
as §1

A further data set concerns the target P-gp (Homo sapiens, UniProt P08183). Particulars: in vivo.
A further data set addresses CYP3A4 (Homo sapiens, UniProt P08684). Kind of data set: Metabolism of lonafarnib. An excerpt: Lonafarnib has not been studied in subjects with hepatic impairment.
Data set [4] in a line: Multiple-dose lonafarnib PK (100 mg twice daily) in loperamide study. It counts as in vivo, human.
Data set [5] is described as follows: Food-effect evaluation of single-dose LNF. The class given is in vivo, human. An excerpt: To evaluate the effect of a high-fat/high-calorie standard breakfast on the single-dose PK of LNF relative to a fasted state in healthy subjects (Group 2).
To evaluate the effect of a low-fat/low-calorie breakfast on the single-dose PK of LNF relative to a fasted state in healthy subjects (Group 2).
The effect of food (high-fat/high-calorie standard breakfast and low-fat/low-calorie breakfast) on the single-dose PK of LNF relative to the single-dose PK of LNF when administered under fasted conditions was evaluated.
• Period 1: Oral dose of LNF (75-mg capsule×1) on Day 1 (AM) under fed conditions (high-fat/high-calorie breakfast) • Period 2: Oral dose of LNF (75-mg capsule×1) on Day 4 (AM) under fed conditions (low-fat/low-calorie breakfast) • Period 3: Oral dose of LNF (75-mg capsule×1) on Day 7 (AM) under fasted conditions

The subject of data set [6] is CYP3A. Kind of data set: Co-administration of lonafarnib with ketoconazole, a strong CYP3A inhibitor. The class given is in vivo, human. Particulars: co-administered with ketoconazole 200 mg twice daily.
A short description of data set [7]: Renal clearance and renal impairment study of lonafarnib. It counts as in vivo, human. An excerpt:
Lonafarnib is renally cleared <1% and no meaningful differences would be expected in subjects with renal impairment. […] Thus, lonafarnib is […].

In data set [8] the target is T1, CYP2C19. Kind of data set: In vitro and in vivo CYP inhibition studies (CYP2C19).
Description: as §2

Data set [9] deals with CYP3A.
A short description of data set [10]: Safety and tolerability in loperamide interaction study.
A further data set concerns cytochrome P450 CYP3A. Kind of data set: Drug-drug interaction study: multiple-dose lonafarnib on pharmacokinetics of single-dose midazolam. An excerpt: (§3) An open-label, single-center, two-period, single-sequence, multi-drug-drug interaction study to evaluate the effects of multiple-dose lonafarnib on the pharmacokinetics of single-dose midazolam, a sensitive cytochrome p450-3a substrate.
(§4) Given the profound increase, sensitive substrates of CYP3A should be contraindicated with lonafarnib.

In data set [11] the test system is CYP3A. Described as above. Particulars: human, in vivo, 100 mg.
Description: as §3, §4

The mark [12] stands for this setting: co-administered with lonafarnib vs midazolam alone.
The mark [13] stands for this setting: lonafarnib 75 mg twice daily co-administered.
The mark [14] stands for this setting: single-dose omeprazole with multiple-dose LNF.
Where [15] appears, read: with multiple-dose LNF vs alone.

T1 sequence (P33261 whole entry): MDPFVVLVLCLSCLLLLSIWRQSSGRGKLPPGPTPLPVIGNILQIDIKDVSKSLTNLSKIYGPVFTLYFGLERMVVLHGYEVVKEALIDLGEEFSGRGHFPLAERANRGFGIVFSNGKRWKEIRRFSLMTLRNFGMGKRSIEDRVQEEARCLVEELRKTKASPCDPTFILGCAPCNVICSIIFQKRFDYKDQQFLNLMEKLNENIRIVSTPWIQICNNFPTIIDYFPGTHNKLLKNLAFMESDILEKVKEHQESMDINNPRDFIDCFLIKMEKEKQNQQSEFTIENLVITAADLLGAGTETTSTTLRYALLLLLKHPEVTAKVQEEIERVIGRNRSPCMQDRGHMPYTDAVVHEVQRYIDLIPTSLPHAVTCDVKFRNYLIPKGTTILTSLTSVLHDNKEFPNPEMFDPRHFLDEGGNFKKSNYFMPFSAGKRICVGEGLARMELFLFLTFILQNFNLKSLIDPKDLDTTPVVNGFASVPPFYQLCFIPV
Sequence of CYP3A4 (P08684 whole entry): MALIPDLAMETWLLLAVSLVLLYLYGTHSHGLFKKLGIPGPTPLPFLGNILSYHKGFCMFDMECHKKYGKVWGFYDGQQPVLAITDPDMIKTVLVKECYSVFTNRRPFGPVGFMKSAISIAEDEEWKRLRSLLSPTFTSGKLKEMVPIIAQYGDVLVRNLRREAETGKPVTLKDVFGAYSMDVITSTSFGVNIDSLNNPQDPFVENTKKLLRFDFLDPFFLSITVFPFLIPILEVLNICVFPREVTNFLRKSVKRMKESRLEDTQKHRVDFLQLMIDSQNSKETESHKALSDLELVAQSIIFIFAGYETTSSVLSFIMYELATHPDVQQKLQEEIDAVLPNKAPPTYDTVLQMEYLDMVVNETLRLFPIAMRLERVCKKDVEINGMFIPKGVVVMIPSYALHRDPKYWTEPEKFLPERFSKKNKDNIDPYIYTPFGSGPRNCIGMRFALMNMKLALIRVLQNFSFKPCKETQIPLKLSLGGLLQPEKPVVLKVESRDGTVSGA
Sequence of P-gp (P08183 whole entry): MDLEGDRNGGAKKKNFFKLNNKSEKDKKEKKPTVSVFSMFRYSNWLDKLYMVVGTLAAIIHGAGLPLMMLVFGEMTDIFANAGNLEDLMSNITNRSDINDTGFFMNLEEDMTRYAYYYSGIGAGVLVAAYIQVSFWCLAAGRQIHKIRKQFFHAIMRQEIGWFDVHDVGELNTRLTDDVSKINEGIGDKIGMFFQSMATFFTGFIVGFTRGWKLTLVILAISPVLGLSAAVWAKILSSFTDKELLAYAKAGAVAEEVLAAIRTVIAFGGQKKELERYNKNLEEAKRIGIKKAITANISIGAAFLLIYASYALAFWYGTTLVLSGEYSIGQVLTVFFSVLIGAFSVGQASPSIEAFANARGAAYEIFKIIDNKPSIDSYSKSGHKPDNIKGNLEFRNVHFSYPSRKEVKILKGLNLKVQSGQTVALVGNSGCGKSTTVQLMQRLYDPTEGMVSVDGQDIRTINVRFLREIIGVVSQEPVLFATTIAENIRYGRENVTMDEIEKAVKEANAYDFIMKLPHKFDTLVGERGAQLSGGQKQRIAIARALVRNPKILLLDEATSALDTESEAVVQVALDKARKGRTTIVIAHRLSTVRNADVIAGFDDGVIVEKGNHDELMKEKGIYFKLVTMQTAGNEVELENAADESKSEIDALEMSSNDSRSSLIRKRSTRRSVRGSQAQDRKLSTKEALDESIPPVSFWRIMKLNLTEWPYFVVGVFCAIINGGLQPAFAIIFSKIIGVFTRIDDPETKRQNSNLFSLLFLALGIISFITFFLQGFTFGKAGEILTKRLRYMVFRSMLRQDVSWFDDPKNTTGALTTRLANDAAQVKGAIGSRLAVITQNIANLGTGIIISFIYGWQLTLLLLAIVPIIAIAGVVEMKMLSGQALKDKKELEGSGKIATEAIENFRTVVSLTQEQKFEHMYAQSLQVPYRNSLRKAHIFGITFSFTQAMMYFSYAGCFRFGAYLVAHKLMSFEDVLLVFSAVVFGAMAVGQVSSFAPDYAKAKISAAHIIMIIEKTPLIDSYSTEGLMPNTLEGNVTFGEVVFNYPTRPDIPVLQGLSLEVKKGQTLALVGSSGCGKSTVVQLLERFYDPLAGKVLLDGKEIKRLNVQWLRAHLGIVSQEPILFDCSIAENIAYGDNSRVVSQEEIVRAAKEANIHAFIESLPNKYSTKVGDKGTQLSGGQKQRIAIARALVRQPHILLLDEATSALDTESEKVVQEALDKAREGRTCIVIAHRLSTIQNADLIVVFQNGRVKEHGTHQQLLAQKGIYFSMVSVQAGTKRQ

As usually defined, the Cmax is the peak of the concentration-time curve. For `NC(=O)N1CCC(CC(=O)N2CCC([C@H]3c4ncc(Br)cc4CCc4cc(Cl)cc(Br)c43)CC2)CC1` [lonafarnib], the adverse event incidence result in [1] is given as “More subjects experienced AEs taking LNF”. The “CYP3A inhibition (classification)” value in the data set with CYP3A [2] is “potent CYP3A time-dependent and mechanism based inhibitor”. In addition, the “CYP2C19 inhibition in vivo (classification)” value on CYP2C19 [3] is recorded as “moderate CYP2C19 inhibitor”; on CYP2C19 [3] (listed as LNF), “direct/reversible inhibition of CYP2C19 in a moderate magnitude”. Moreover, the “P-gp inhibition (classification)” value on P-gp is recorded as “weak P-gp inhibitor”. For the same compound, on CYP3A4, the route of metabolism entry is given as “extensively metabolised via the cytochrome P450 enzyme system in the liver; also recorded: metabolized predominantly via CYP3A4 enzyme”. Also, the highest level in data set [4] (human, in vivo, steady state) (Cmax) was 964 ng/mL. For the same compound, in data set [4] (human, in vivo, steady state, read-out: lonafarnib T1/2 (converted)), the half-life was 4.22 h. In [4] (steady state), the “lonafarnib extent of exposure” value is recorded as 6,940 ng·h/mL. Besides, the “study day by which steady state was achieved” value in data set [4] (trough lonafarnib concentrations) is no more than 8 days. The “LNF CL/F higher than fasted state” value in data set [5] (single 75 mg dose, 2 fed states vs fasted) was 33-35%. Besides, the “decrease of LNF exposure (AUC0-t and AUC0-inf)” value in data set [5] (single 75 mg dose, fed states vs fasted) is recorded as 21-29%. Also, the “LNF Cmax decrease relative to fasted state” value in data set [5] (single 75 mg dose, high-fat/high-calorie breakfast) is 55%; in [5] (single 75 mg dose, low-fat/low-calorie breakfast) it was 25%. The “LNF Tmax relative to fasted state” value in [5] (single dose with high-fat/high-calorie or low-fat/low-calorie meal) is reported as “delayed”. Further, the “lonafarnib AUC increase” value with CYP3A [6] is “approximately 5 fold”. In addition, in the data set on CYP3A [6], the “lonafarnib Cmax increase” value is “approximately 3.6 fold”. In [7] (in vivo), this compound returned a fraction renally cleared of less than 1%. The “lonafarnib exposure in renal impairment” value in data set [7] (subjects with severe renal impairment) was “exposures increase”. In addition, the “CYP2C19 inhibition (classification)” value on CYP2C19 [8] is recorded as “moderate CYP2C19 inhibitor”.
`CN(C)C(=O)C(CCN1CCC(O)(c2ccc(Cl)cc2)CC1)(c1ccccc1)c1ccccc1` [loperamide]: the “increase of loperamide exposures (upper limit)” value in the data set with CYP3A [9] (coadministration of lonafarnib with loperamide) is on record as “up to 4.6 fold”. For the same compound, the “loperamide Cmax increase” value in the data set with CYP3A [9] (single-dose loperamide 2 mg after lonafarnib 100 mg twice daily 5 days vs loperamide alone) was roughly 3 fold. Moreover, the “loperamide Kel compared with loperamide alone” value in the data set on CYP3A [9] (with multiple-dose lonafarnib) is reported as “similar”. For the same compound, the tolerability entry in [10] (healthy subjects, lonafarnib 100 mg twice daily and loperamide 2 mg) was “generally tolerated lonafarnib and loperamide well”. Further, the “GI adverse events vs lonafarnib alone” value in [10] (loperamide coadministered with lonafarnib) was “fewer GI adverse events”.
By Tmax is commonly meant the time from dosing to the highest level. `Cc1ncc2n1-c1ccc(Cl)cc1C(c1ccccc1F)=NC2` [midazolam]: in the data set with cytochrome P450 CYP3A (setting [12]), the “midazolam AUC increase” value was “approximately 7 fold” and the “midazolam Cmax increase” value is “approximately 3 fold”. The “change in midazolam Cmax, AUC0-t and AUC0-inf” value with cytochrome P450 CYP3A (single-dose midazolam with multiple-dose lonafarnib) is given as “increased statistically significantly”. In the data set with CYP3A [11], the Tmax came out at 0.5 h.
With `COc1ccc2[nH]c([S+]([O-])Cc3ncc(C)c(OC)c3C)nc2c1` (stereo not shown) [omeprazole], at CYP2C19 [3] (coadministration with LNF), the “change in omeprazole CL/F” value is recorded as “decreased”, the “change in omeprazole Kel” value was “decreased” and the “change in omeprazole T1/2” value is on record as “increased”. For the same compound, at CYP2C19 [3] (setting [13]), the “omeprazole AUC increase” value is “approximately 1.6 fold” and the “omeprazole Cmax increase” value is given as “approximately 1.3 fold”. Moreover, the “omeprazole Cmax increase” value at CYP2C19 [3] (single-dose omeprazole 40 mg with multiple-dose LNF 75 mg twice daily 5 days) was 44%. Also, on CYP2C19 [3] (setting [14]), the “omeprazole AUC0-t and AUC0-inf increase” value is on record as “approximately 2 fold”; the “omeprazole Tmax with vs without LNF” value was “approximately the same time”. Besides, on CYP2C19 [3] (setting [15]), the “omeprazole AUC0-inf geometric mean ratio (CI)” value is 1.600 (1.32, 1.94); the “omeprazole AUC0-t geometric mean ratio (CI)” value was 1.602 (1.34, 1.91); the “omeprazole Cmax geometric mean ratio (CI)” value is 1.275 (1.01, 1.61).
